Laboratory results published in patent US9260710B2, “Photocleavable linker” (City of Hope, priority 2012, dated 2016).

How the values were obtained:
Assay type in all cases: cell-based
[1] = test system: GFP-LC8 trap transfected Cos1/Cos7 cells; assay: Organelle dispersion and microtubule array in cells expressing the LC8 trap
Description: (§1) In vivo effect of Dynein LC and IC Traps. As tests for LC function, we evaluated the effects of the traps on early endosome, lysosome, and Golgi distribution, as well as mitotic progression. First, we fused green fluorescent protein (GFP) to the N-terminus of both FKBP-traps to identify transfected cells. Next, we transfected Cos1, Cos7, or HeLa cells with either trap or a GFP-FKBP control and labeled endosomes, lysosomes and Golgi with EEA1, LAMP2 and GM130 markers, respectively (FIGS. 12A-12C). […] The percentage of cells expressing the GFPLC8 or GFP-TcTex1 trap with dispersed endosomes was 14.7±1.5% and 13.3±1.5%, respectively, as compared to 11.7±3.5% and 10.3±3.5% for non-transfected cells and cells that expressed a GFP-FKBP control, respectively. […] After 8 h of treatment with AP20187, we observed greater than 50% dispersion of the three organelle types for each trap.
(§2) To ensure the AP20187 concentration was not limiting, we followed the LC8-trap-induced dispersion of lysosomes as a function of AP20187 concentration after 8 h. […] For the TcTex1-trap, we observed efficient endosome, lysosome and Golgi dispersion at AP20187 concentrations of 1 μM or greater.
(§3) Kinetic Analysis Separates Dynein Functions. A major purpose for developing these traps is to provide immediate inhibition of protein function and follow the cellular response from this perturbation to gain new insight. Thus, we monitored the fraction of cells with dispersed organelles as a function of time. After induction of dimerization by AP20187, effects on both early endosome and lysosome distribution were detectable at 10 min, and leveled off at ˜2 h (FIGS. 14A-14B). […] The most rapid effect was observed on lysosomes in cells expressing the LC8 trap. In striking contrast, Golgi dispersal using either trap occurred over a much longer time-course, requiring 8 h after induction of dimerization to reach similar levels of dispersion as for endosomes and lysosomes. Twenty-four hours after addition of AP20187, the percentage of cells with dispersed Golgi reached levels greater than 85%.

[2] = test system: GFP-TcTex1 trap transfected Cos1/Cos7 cells; assay: Organelle dispersion and microtubule array in cells expressing the TcTex1 trap; set-up: dispersion of the three organelle types (early endosomes, lysosomes, Golgi): dose or concentration left out as unconfirmed
Description: as §1, §2, §3

[3] = test system: non-transfected or GFPFKBP-expressing cells; assay: Organelle dispersion in cells without trap treated with AP20187
Description: as §1, §2

[4] = after induction of dimerization
[5] = twenty-four hours after addition

CCC(C(=O)N1CCCCC1C(=O)OC(CCc1ccc(OC)c(OC)c1)c1cccc(OCC(=O)NCC(CNC(=O)COc2cccc(C(CCc3ccc(OC)c(OC)c3)OC(=O)C3CCCCN3C(=O)C(CC)c3cc(OC)c(OC)c(OC)c3)c2)CN(C)C)c1)c1cc(OC)c(OC)c(OC)c1 (stereo not shown) [AP, AP20187]
dispersion of the three organelle types (early endosomes, lysosomes, Golgi) ([1]; 8 h of treatment, 100 μM AP20187): greater than 50%
microtubule radial array / cytoskeleton changes ([1]; 8 h post-induction): No significant changes
AP20187 concentration at which lysosome dispersion reached a plateau ([1]; after 8 h): 100 nM
time at which effects on early endosome and lysosome distribution leveled off [1, 4]: ~2 h
time at which effects on early endosome and lysosome distribution were detectable [1, 4]: 10 min
time required for Golgi dispersal to reach similar levels as endosomes and lysosomes [1, 4]: 8 h
percentage of cells with dispersed Golgi [1, 5]: greater than 85%
AP20187 concentrations giving efficient endosome, lysosome and Golgi dispersion [2]: ≥ 1 µM
dispersion of the three organelle types (early endosomes, lysosomes, Golgi) ([2]; 8 h of treatment): greater than 50%
microtubule radial array / cytoskeleton changes ([2]; 8 h post-induction): No significant changes
time at which effects on early endosome and lysosome distribution leveled off [2, 4]: ~2 h
time at which effects on early endosome and lysosome distribution were detectable [2, 4]: 10 min
time required for Golgi dispersal to reach similar levels as endosomes and lysosomes [2, 4]: 8 h
percentage of cells with dispersed Golgi [2, 5]: greater than 85%
effect on dispersion for each organelle ([3]; AP20187 for 8 h): did not affect the dispersion
dispersal of organelles at any concentration tested ([3]; non-transfected cells, <2 μM): did not show dispersal
